Experimental findings from ChEMBL document CHEMBL3507680, “University of Dundee, Gates Library screen for HepG2 cell viability” are described below.

A short description of this series: Human HepG2 cell viability assay in 384 well format. It counts as toxicity, cell-based. On the set-up: dose 125 nL, time 70.5 hour; concentration not given beside the values. Particulars: HepG2 cells, read-out: Inhibition.

For the molecule `O=C(Cc1ccc2c(c1)OCCO2)N1CCN(c2cnccn2)CC1`, the cytotoxicity at 70.5 h was -1.49%.

For `CC(=O)N1CCN(C(=O)NCc2cccnc2OC(C)C)CC1`, the cytotoxicity at 70.5 h turned out to be 26.4%.

With `CCOc1ccccc1OC1CCN(C(=O)c2csnn2)CC1`, the cytotoxicity at 70.5 h is -5.03%.

As for `O=C(Cc1ccc2c(c1)CCO2)N1CCN(c2ccccn2)CC1`, the cytotoxicity at 70.5 h is 2.5%.

On to `O=C(Cc1ccc2c(c1)CCO2)N1CCN(c2ccncc2)CC1`, for which the cytotoxicity at 70.5 h was 6.77%.

For the molecule `Cc1cc(C)c(CNC(=O)NCc2ccc(F)cc2)c(=O)[nH]1`, the cytotoxicity at 70.5 h is -3.16%.

Consider `O=C(Cc1ccccc1)N1CCN(CC(O)c2ccc(F)cc2)CC1` (stereo unspecified), for which the cytotoxicity at 70.5 h was -4.03%.

With `O=C(N1CCOCC1)N1CCN(CC(O)c2ccc(F)cc2)CC1` (stereo unspecified), the cytotoxicity at 70.5 h was 3.33%.

As to `CCn1ccnc1CN1CCN(CCOc2ccc(C#N)cc2)CC1`, the cytotoxicity at 70.5 h is -4.7%.

With `NC(=O)COc1cccc(CN2CCc3cncnc3C2)c1`, the cytotoxicity at 70.5 h is -0.423%.

Regarding `CC(C)c1ncc2c(n1)CN(Cc1cccc(C(N)=O)c1)CC2`, the cytotoxicity at 70.5 h was -4.48%.

In the case of `CC(C)Oc1ncccc1CNC(=O)N1CCC(n2cccc2)CC1`, the cytotoxicity at 70.5 h was -0.649%.

For `Cc1nc(C2CCCN2C(=O)c2cc3c(s2)CCC3)no1` (stereo unspecified), the cytotoxicity at 70.5 h is -6.34%.

For `CCN(CC)Cc1ccc(C(=O)N2CCN(CC(C)O)CC2)o1` (stereo unspecified), the cytotoxicity at 70.5 h is -5.77%.

On to `Cc1cc(CN(C)C(=O)c2ccc(Cl)c(N3CCCC3=O)c2)no1`, for which the cytotoxicity at 70.5 h turned out to be 28.1%.

For the molecule `CN(CC(=O)N1CCCC1c1cnn(C)c1)Cc1ccccc1` (stereo unspecified), the cytotoxicity at 70.5 h was -11.9%.

Consider `CC(Cn1cccn1)NCc1ccc(Cl)s1` (stereo unspecified), for which the cytotoxicity at 70.5 h was -4.9%.

With `Cc1ccc(S(=O)(=O)Nc2ccc(=O)n(C)c2)c(Br)c1`, the cytotoxicity at 70.5 h came to 21.8%.

For the molecule `COc1ccc2c(c1)CCN2Cc1nc2c(cnn2C)c(=O)[nH]1`, the cytotoxicity at 70.5 h is -9.79%.

Take `CC(Cn1ccnc1)NC(=O)C1(c2ccccc2)CC1` (stereo unspecified): the cytotoxicity at 70.5 h is -10.4%.

Turning to `NC(=O)c1ccc(CNC(=O)Nc2cn[nH]c2)cc1`, the cytotoxicity at 70.5 h stood at 16%.

Regarding `Cc1cccc(C2(C(=O)NC(C)Cn3ccnc3)CC2)c1` (stereo unspecified), the cytotoxicity at 70.5 h is -8.86%.

Regarding `CC(Cn1ccnc1)NC(=O)C1(c2cccc(Cl)c2)CC1` (stereo unspecified), the cytotoxicity at 70.5 h was -1.52%.

Consider `CNS(=O)(=O)Cc1cccc(CNC(=O)Nc2cn[nH]c2)c1`, for which the cytotoxicity at 70.5 h was -4.03%.

Take `COC(=O)c1ccc(N2CCN(C(=O)c3ccco3)C(C)C2)cc1` (stereo unspecified): the cytotoxicity at 70.5 h was -3.57%.

Take `CC(NC(=O)N1CCC(n2cncn2)CC1)c1ccc(F)cc1` (stereo unspecified): the cytotoxicity at 70.5 h was -6.99%.

With `Cn1cc(C2CCCN2C(=O)CCCOc2ccccc2F)cn1` (stereo unspecified), the cytotoxicity at 70.5 h is -2.53%.

With `Cc1nc2n(n1)CC(NCC(=O)Nc1cc(C)on1)CC2` (stereo unspecified), the cytotoxicity at 70.5 h is -6.78%.

With `COc1ccc(C2CCCN2Cc2nc3c(cnn3C)c(=O)[nH]2)cc1` (stereo unspecified), the cytotoxicity at 70.5 h was -8.35%.

As to `CCc1cnc(CN(C)C2CCN(CC(=O)Nc3nccs3)C2)o1` (stereo unspecified), the cytotoxicity at 70.5 h was determined as 23%.

For the molecule `Cc1noc(CCCC(=O)N2CCCC2c2ccsc2)n1` (stereo unspecified), the cytotoxicity at 70.5 h is -8.85%.

`Cn1ccnc1CN1CCCN(Cc2noc(C3CC3)n2)CC1`: the cytotoxicity at 70.5 h is -1.01%.

With `O=C(Nc1ccncc1)C1=NN(c2ccccc2)C(=O)CN1`, the cytotoxicity at 70.5 h is -16.1%.

For the molecule `O=C(Nc1ccccc1F)C1=NN(c2ccccc2)C(=O)CN1`, the cytotoxicity at 70.5 h was -4.94%.

For the molecule `CCCc1noc(CCC(=O)N2CCCC2c2cccc(OC)c2)n1` (stereo unspecified), the cytotoxicity at 70.5 h was -8.65%.

For `O=C(CCc1nc(-c2ccccn2)no1)N1CCCC1c1ccsc1` (stereo unspecified), the cytotoxicity at 70.5 h is -10.3%.

For `Cc1ccccc1OCC(O)CN1CCC(c2ccn[nH]2)CC1` (stereo unspecified), the cytotoxicity at 70.5 h is -4.42%.

Turning to `COc1ccc(COCC(O)CN2CCC(c3ccn[nH]3)CC2)cc1` (stereo unspecified), the cytotoxicity at 70.5 h was -8.27%.

On to `Cc1nnc(NC(=O)NCc2ccc(N3CCN(C)CC3)nc2)s1`, for which the cytotoxicity at 70.5 h was -24.8%.

Take `Cc1cccc(N2CCN(CCNC(=O)C(C)n3cncn3)CC2)c1` (stereo unspecified): the cytotoxicity at 70.5 h was -6.98%.

With `Cc1nnc(NC(=O)NCc2cc(F)cc(F)c2)s1`, the cytotoxicity at 70.5 h is -14.2%.

As to `Cc1ccc(C)n1-c1ccc(C(=O)NCCNc2ncccn2)cc1`, the cytotoxicity at 70.5 h was -7.02%.

Take `O=C(Cc1ccc2c(c1)CCC2)NCCNc1ncccn1`: the cytotoxicity at 70.5 h is 10.9%.

Turning to `COc1ccc(C)cc1CN(C)Cc1nc2c(cnn2C)c(=O)[nH]1`, the cytotoxicity at 70.5 h was -7.21%.

Take `Cc1cc(C)c(CNC(=O)N(C)Cc2sccc2C)c(=O)[nH]1`: the cytotoxicity at 70.5 h is -10.7%.

In the case of `CCOc1cccc(C(=O)N2CCN(c3nccc(OC)n3)CC2)c1`, the cytotoxicity at 70.5 h was found to be 23.4%.

In the case of `CCOc1ccnc(N2CCN(C(=O)C(C)(C)C#N)CC2)n1`, the cytotoxicity at 70.5 h was -12.5%.

Regarding `CCN(Cc1ccccc1)C(=O)CN1CCCC(Cn2cncn2)C1` (stereo unspecified), the cytotoxicity at 70.5 h was -4.31%.

Turning to `CC(C)c1nnc2n1CCN(CC(=O)Nc1sccc1C#N)C2`, the cytotoxicity at 70.5 h amounted to 13.5%.

On to `Cc1nc(CN(C)C2CCN(Cc3nc4ccccc4s3)C2)no1` (stereo unspecified), for which the cytotoxicity at 70.5 h is -8.96%.

Take `CCCOCC(=O)NS(=O)(=O)c1ccc2c(c1)OCCCO2`: the cytotoxicity at 70.5 h is 19.6%.

For `COCCCC(=O)NS(=O)(=O)c1ccc2c(c1)OCCCO2`, the cytotoxicity at 70.5 h was -8.6%.

On to `CN(Cc1ccc2c(c1)OCO2)Cc1nc2c(cnn2C)c(=O)[nH]1`, for which the cytotoxicity at 70.5 h was determined as 1.92%.

As for `CCc1ncncc1C(=O)N1CCCN(Cc2ccc(C)cc2)CC1`, the cytotoxicity at 70.5 h is 20.1%.

Consider `Cc1cnn(CCNCC(=O)NCc2ccccc2)c1`, for which the cytotoxicity at 70.5 h was -12.3%.

Take `Cc1nc(CN(C)C2CCN(Cc3sc(C)nc3C)C2)no1` (stereo unspecified): the cytotoxicity at 70.5 h was -7.02%.

In the case of `CN(Cc1ccco1)C(=O)CN1CCCC(Cn2cncn2)C1` (stereo unspecified), the cytotoxicity at 70.5 h is -8.21%.

As for `Cc1nn(C)c(C)c1C1CCCN1C(=O)CCCn1cccn1` (stereo unspecified), the cytotoxicity at 70.5 h was -14.1%.

Turning to `Cc1nc(CN2CCCN(CCOc3cccc(C#N)c3)CC2)no1`, the cytotoxicity at 70.5 h came to 38.4%.

As for `c1ccc(Cn2cc(CNCC3CCCN3c3cccnn3)cn2)cc1` (stereo unspecified), the cytotoxicity at 70.5 h stood at 3.57%.

For `Cc1nc(C)n(CC2CN(Cc3cccnc3)CCO2)n1` (stereo unspecified), the cytotoxicity at 70.5 h is -3.76%.

As to `Cc1nc(C)n(CC2CN(Cc3cccc4c3OCCO4)CCO2)n1` (stereo unspecified), the cytotoxicity at 70.5 h was 1.12%.

With `Cc1cc(CN2CCCC2c2c(C)nn(C)c2Cl)no1` (stereo unspecified), the cytotoxicity at 70.5 h stood at 4.73%.

`O=C(NCCc1ccsc1)Nc1cccnc1N1CCCC1`: the cytotoxicity at 70.5 h came to 3.02%.

As to `O=C(CCNC(=O)C1CCCC1)NCc1cccnc1-n1cncn1`, the cytotoxicity at 70.5 h is -9.48%.

For `Cc1noc(NC(=O)c2ccc(OC(F)(F)F)cc2)n1`, the cytotoxicity at 70.5 h stood at 55.7%.

Turning to `Cc1noc(NC(=O)c2ccc(Br)cc2)n1`, the cytotoxicity at 70.5 h worked out at 48.3%.

With `Cc1nc(-c2ccccc2)sc1C(=O)NCCNc1ncccn1`, the cytotoxicity at 70.5 h is 1.41%.

As to `Cc1nccn1-c1cc(CNC(=O)CCNC(=O)C2CCCC2)ccn1`, the cytotoxicity at 70.5 h is 2.73%.

For `Cc1ncsc1C(=O)NC1CCN(CC(=O)N(C)C(C)(C)C#N)CC1`, the cytotoxicity at 70.5 h is 28.1%.

As for `CCN(Cc1ccco1)C(=O)Nc1cc(C(F)(F)F)c[nH]c1=O`, the cytotoxicity at 70.5 h was 11.4%.

Take `OCCn1nccc1C1CCN(CCCOc2ccc(F)cc2)CC1`: the cytotoxicity at 70.5 h is -1.62%.

As for `Cc1cc(C)c(CNC(=O)NCC(c2ccccc2)N(C)C)c(=O)[nH]1` (stereo unspecified), the cytotoxicity at 70.5 h came to 7.25%.

Regarding `O=C(c1ccc(N2CCCC2)nn1)N1CCCC(n2cccn2)C1` (stereo unspecified), the cytotoxicity at 70.5 h is -1.11%.

Regarding `Cc1cc(C)n(CC2CN(CCOc3cccc(F)c3)CCO2)n1` (stereo unspecified), the cytotoxicity at 70.5 h stood at 1.51%.

For the molecule `O=C(NCC1CC1)N1CCN(Cc2ccc3c(c2)OCCO3)CC1`, the cytotoxicity at 70.5 h is 2.86%.

As to `Cc1cnn(CC2CCCN2C(=O)c2cc(C)no2)c1` (stereo unspecified), the cytotoxicity at 70.5 h is 25.6%.

Regarding `CN(C)CC1CN(CCOc2cccc(C#N)c2)CCO1` (stereo unspecified), the cytotoxicity at 70.5 h was found to be 0.102%.

For the molecule `CCc1ncc2c(n1)CN(CC(=O)NCCOc1ccccc1)CC2`, the cytotoxicity at 70.5 h was -5.27%.

Turning to `c1ccc(-n2ncc(CNCC3CCCN3c3cccnn3)n2)cc1` (stereo unspecified), the cytotoxicity at 70.5 h is 5.2%.

Turning to `O=C1COc2cc(C(=O)NS(=O)(=O)c3ccccc3F)ccc2N1`, the cytotoxicity at 70.5 h was 21.7%.

Consider `CC(NC(=O)CSCC(=O)Nc1ccccc1)c1ccccc1` (stereo unspecified), for which the cytotoxicity at 70.5 h was -1.19%.

Regarding `CCN(CC1CCOC1)C(=O)c1ccccc1N1CCOCC1` (stereo unspecified), the cytotoxicity at 70.5 h turned out to be 18.7%.

Take `CC(C(=O)N1CCCN(c2ncccc2C#N)CC1)n1ccnc1` (stereo unspecified): the cytotoxicity at 70.5 h is 21.6%.

Take `CC(C)CN(C)c1ccc(C(=O)N2CCCC2c2cnn(C)c2)cn1` (stereo unspecified): the cytotoxicity at 70.5 h was 21.8%.

In the case of `CSc1nccn1-c1cccc(C(=O)NCCCN2CCOCC2)c1`, the cytotoxicity at 70.5 h amounted to 1.7%.

Turning to `Cc1nc2ccnn2c(C)c1CCC(=O)N1CCN(C2CC2)CC1`, the cytotoxicity at 70.5 h amounted to 15.8%.

In the case of `COc1ccnc(N2CCN(C(=O)CN3CCCC3=O)CC2)n1`, the cytotoxicity at 70.5 h was found to be 0.556%.

With `COC(=O)c1ccc(N2CCN(CCC(=O)NC(N)=O)C(C)C2)cc1` (stereo unspecified), the cytotoxicity at 70.5 h is -6.28%.

Take `Cc1noc(Cl)c1CC(=O)N1CCCC(n2cccn2)C1` (stereo unspecified): the cytotoxicity at 70.5 h is -4.55%.

As for `Cn1ccnc1CN1CCN(Cc2ccccc2C#N)CC1`, the cytotoxicity at 70.5 h amounted to 6.78%.

Consider `Cc1nccn1C1CCCN(C(=O)c2ccc3c(c2)nnn3C)C1` (stereo unspecified), for which the cytotoxicity at 70.5 h was -6.07%.

Consider `CCOCC(O)CN1CCN(C(=O)c2cnc3n[nH]c(C)c3c2)CC1` (stereo unspecified), for which the cytotoxicity at 70.5 h is -2.39%.

On to `CSc1nccn1-c1cccc(C(=O)NCc2nnc(C)n2C)c1`, for which the cytotoxicity at 70.5 h was 6.07%.

As to `Cc1noc(C)c1CN1CCc2nn(C(C)C)c(=O)cc2C1`, the cytotoxicity at 70.5 h was 38.6%.

As for `Cc1nc2ccnn2c(C)c1CCC(=O)N1CCC(C(N)=O)CC1`, the cytotoxicity at 70.5 h stood at 2.4%.

For `Cc1cnc2c(S(=O)(=O)NCC3CCN(C4CC4)C3)cccc2c1` (stereo unspecified), the cytotoxicity at 70.5 h was -5.3%.

Consider `CCN(CC)CCNC(=O)c1cnc(C(C)(C)C)s1`, for which the cytotoxicity at 70.5 h was -6.77%.

Take `CCc1ncc2c(n1)CN(Cc1nc(-c3ccsc3)no1)CC2`: the cytotoxicity at 70.5 h was -6.7%.

For the molecule `Cc1nn(C)c(C)c1CC(=O)N1CCCC(n2ccnc2)C1` (stereo unspecified), the cytotoxicity at 70.5 h is -3.37%.

`COc1ccc(CC(=O)N2CCCC2Cn2cccn2)cc1F` (stereo unspecified): the cytotoxicity at 70.5 h was -9.94%.
